Results reported in ChEMBL document CHEMBL1149033, “Novel HIV-inhibitory halistanol sulfates F-H from a marine sponge, Pseudoaxinissa digitata” (J Nat Prod, 1994).
Activity calls are given as the source filed them. No cut-off for these calls is given here.

Key:
[1] = tested on: Human immunodeficiency virus 1; assay: Antiviral activity against HIV1 assessed as cytoprotective activity against viral-infection by NCI primary screen; format: functional, organism-based
[2] = tested on: Human immunodeficiency virus 2; assay: Antiviral activity against HIV2 assessed as cytoprotective activity against viral-infection by NCI primary screen; format: functional, organism-based

CCC(C)(C)C(C)CC[C@@H](C)[C@H]1CC[C@H]2[C@@H]3C[C@H](OS(=O)(=O)[O-])[C@H]4C[C@H](OS(=O)(=O)[O-])[C@@H](OS(=O)(=O)[O-])C[C@]4(C)[C@H]3CC[C@]12C.[Na+].[Na+].[Na+] (some centres undefined) [HALISTANOL SULFATE F]
EC50 [1]: 3 µg/mL | Activity [2]: Active

CC(C)[C@@H](C)CC[C@@H](C)[C@H]1CC[C@H]2[C@@H]3C[C@H](OS(=O)(=O)[O-])[C@H]4C[C@H](OS(=O)(=O)[O-])[C@@H](OS(=O)(=O)[O-])C[C@]4(C)[C@H]3CC[C@]12C.[Na+].[Na+].[Na+] [HALISTANOL SULFATE G SODIUM]
EC50 [1]: 6 µg/mL | Activity [2]: Active
